Reference: patent publication US20090302265A1, “Supercooling promoting agent” (priority 2006, published 2009)

Columns and labels:
[1] = system: dead bacterial cells of ice nucleation active bacteria (Erwinia ananas); assay: supercooling activity (droplet freezing on cooled copper plate, temperature at which 50% of droplets are frozen); type: physicochemical; conditions: cooling 0.2° C./min; for supercooling activity (difference of freezing point vs buffer with ice nucleation bacteria only): 0.5 mg/mL test sample, 50 mM potassium phosphate buffer pH 7.0, 2 μL droplets; for supercooling activity: 0.1 mg/mL test compound, otherwise as example 1
Method: The supercooling activity (or represented as inhibiting activity of ice nucleus formation) is the value measured by the following method. […] A large number of 2 μL droplets of the solution are put on a cupper plate, which is temperature-controllable. Then, the cupper plate is cooled at the rate of 0.2° C./min, the number of frozen droplets are counted macroscopically and the temperature, wherein 50% of droplets are frozen, is defined as freezing point. The supercooling activity is defined as the difference (° C.) between the freezing point of solution containing test sample and ice nucleation active bacteria, and that of solution containing only ice nucleation bacteria and buffer solution.
The supercooling activities of these samples were measured by the following methods. After a buffer solution (50 mM potassium phosphate buffer, pH 7.0) containing dead bacterial cells (Wako pure chemical industries Ltd.,) of ice nucleation active bacteria (Erwinia ananas) mixed with 0.5 mg/mL of a test sample, 2 μL droplets of the solution are put on a cupper plate, which is temperature-controllable. Then, the cupper plate is cooled at the rate of 0.2° C./min, the number of frozen droplets are counted macroscopically and the temperature, wherein 50% of droplets are frozen, is defined as freezing point. The difference (° C.) between the freezing point and that of the buffer solution was measured.

pig liver cells = assay: viability of pig liver cells after supercooled storage (trypan blue staining); type: cell-based; conditions: 0.01% by weight in UW liquid with 1% by volume DMSO; −5° C. and −8° C.; 1, 4 and 7 days; FIG. 8
Method: The storage liquid was prepared by adding 0.01% by weight of kaempferol-7-glucoside (compound 2 (Cj5)), Extrasynthese Co.) and 1% by volume of DMSO (Wako pure chemical industries Ltd., guaranteed reagent) to a buffer solution (UW liquid, 100 mM lactobionic acid, 25 mM KH2PO4, 5 mM MgSO4, 30 mM raffinose, 2.5 mM adenosine, 3 mM GSH, 1 mM allopurinol, 0.25 mg/mL streptomycin, 10 UI/mL penicillin).
For comparison, a mixed solution (UW liquid) without kaempferol-7-O-glucoside and DMSO was prepared.
The viability of cells was evaluated by trypan blue (GIBCO) staining, when pig liver cells 5×10^6 cells/mL were dipped in 0.5 cc of the above storage liquid, supercooled at −5° C. and at −8° C., and stored for 1, 4 and 7 days.

[2] = system: cranberry shoot apexes (buds); assay: survival of cranberry shoot apexes after vitrification in liquid nitrogen and thawing; conditions: 0.05% by weight in 75% vitrification liquid (75% PVS2); liquid nitrogen overnight, thawed at room temperature; FIG. 9A vs 9B
Method: As a vitrification liquid, 75% dilution solution of PVS2 liquid (22.5% by volume glycerol, 11.25% by volume of ethyleneglycol, 11.25% by volume of DMSO, […], the remainder was Murashige & Skoog medium, DUCHEFA BIOCHEMIE BV) supplemented with 0.05% by weight of kaempferol-7-O-glucoside (compound 2, Extrasynthese Co.) was used (hereinafter referred to as “75% vitrification liquid”).
For comparison, a mixed solution without kaempferol-7-O-glucoside was prepared. Shoot apexes (buds) are isolated from cranberry (subcultured in Hokkaido University, Graduate School of Agriculture) and dipped in the above mixed solution at room temperature.
On the other hand, survival of shoot apexes, which were dipped in 75% vitrification liquid containing kaempferol-7-O-glucoside at room temperature for a specified loading time, put into liquid nitrogen, frozen for overnight, and then thawed at room temperature, is shown in frozen batch of FIG. 9A. Similarly, survival of the apexes, which were dipped in a vitrification liquid without kaempferol-7-O-glucoside and frozen, is shown in frozen batch of FIG. 9B.

SMILES	supercooling activity (difference of freezing point vs buffer with ice nucleation bacteria only) [1]	supercooling activity [1]	also measured
COc1c(O)cc(O)c2c(=O)c(OC3OC(CO)[C@@H](O)C(O)[C@H]3O)c(-c3ccc(O)cc3)oc12 (stereo partly drawn) [compound 3, 8-methoxykaempferol-3-O-β-glucoside]	−0.2 °C		
O=c1cc(-c2ccccc2)oc2cc(O[C@@H]3O[C@H](CO)[C@@H](O)[C@H](O)[C@H]3O)cc(O)c12 [compound 5, Chrycin-7-O-β-D-glucopyranoside]		−4.5 °C	
O=c1cc(-c2ccc(O[C@@H]3O[C@H](CO)[C@@H](O)[C@H](O)[C@H]3O)cc2)oc2cc(O[C@@H]3O[C@H](CO)[C@@H](O)[C@H](O)[C@H]3O)cc(O)c12 [compound 7, apigenin 4′, 7-di-O-β-D-glucopyranoside]		−4.9 °C	
O=c1c(OC2OC(CO)[C@@H](O)C(O)[C@H]2O)c(-c2ccc(O)c(O)c2)oc2cc(O)cc(O)c12 (stereo partly drawn) [compound 1, quercetin-3-O-β-glucoside]	−1.8 °C		
C[C@@H]1O[C@@H](O[C@H]2[C@H](Oc3cc(O)c4c(=O)cc(-c5ccc(O)cc5)oc4c3)O[C@H](CO)[C@@H](O)[C@@H]2O)[C@H](O)[C@H](O)[C@H]1O [compound 8, apigenin 7-O-β-neohesperidoside]		−1.8 °C	
O=c1c(OC2OC(CO)[C@@H](O)C(O)[C@H]2O)c(-c2ccc(O)cc2)oc2cc(O)cc(O)c12 (stereo partly drawn) [compound 4, kaempferol-3-O-β-glucoside]	−2.5 °C		
O=c1c(O)c(-c2ccc(O)cc2)oc2cc(OC3OC(CO)[C@@H](O)C(O)[C@H]3O)cc(O)c12 (stereo partly drawn) [compound 2, kaempherol-7-O-β-glucoside]	−7.7 °C		viability of cells after supercooled storage (pig liver cells): enables storage of viable animal cells for long-term; survival of shoot apexes after freezing (damage due to freezing) [2]: significantly reduced the damage due to freezing
O=c1cc(-c2ccc(O)cc2)oc2cc(O[C@@H]3O[C@H](CO)[C@@H](O)[C@H](O)[C@H]3O)cc(O)c12 [compound 6, apigenin 7-O-β-D-glucopyranoside]		−12.0 °C	
